Experimental data from US6372774B1, “Derivatives of N-phenylpyrazoles” (Rhone-Poulenc Agriculture Ltd., priority 1985, dated 2002).
Values belong to the compound of their own block, whether it stands above or below them.

Columns and labels:
[1] = system: Megoura viciae (Vetch Aphid); test: Test 1(b): spray of infested tic bean plants, Megoura viciae; format: in vivo; details: at 50 ppm, 2 days, score 0-3 per replicate, 4 replicates (maximum 12)
Experimental: (§1) One or more dilutions of the compounds to be tested were made in 50% aqueous acetone.
(b) Megoura viciae (Vetch Aphid)
(§2) Potted tic bean plants previously infected with mixed stages of Megoura were sprayed to run-off using a laboratory turntable sprayer. Treated plants were held in a greenhouse for 2 days and were assessed for aphid mortality using a scoring system, judging the response in comparison with plants treated with 50% aqueous acetone alone, as controls. Each treatment was replicated 4 times.

[2] = system: larvae of Rhipicephalus appendiculatus; test: Test 4: tick larvae on guinea-pigs given subcutaneous injections; format: in vivo; details: for Result: ticks recovered / engorgement / Result: ticks recovered / number of engorged ticks: 4 subcutaneous injections to guinea-pigs, about 100 hours after infestation; for percentage survival through moulting of engorged tick larvae: recovered ticks kept at 23° C. for 14 to 21 days
Experimental: Some 20 larvae of Rhipicephalus appendiculatus were placed in plastic capsules attached to the shaved flank of guinea-pigs. After 3 hours and then at 23 hourly intervals, the guinea-pigs were given a total of 4 subcutaneous injections of the test compound. Approximately 100 hours after infestation, the guinea-pigs were killed and the engorged tick larvae recovered, counter and kept at 23° C. in a humidity cabinet for 14 to 21 days. After this period, the percentage survival through moulting was assessed.

[3] = system: Phaedon cochleariae (Mustard Beetle); test: Test 3 a): leaf disc spray test, Phaedon cochleariae larvae; format: in vivo; details: Phaedon cochleariae, foliar, read-out: Phaedon % m 10 ppm
In short: (§3)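 Compounds were diluted in 50% aqueous acetone and sprayed in a Potter Tower onto turnip leaf discs in agar, each infested with 10 larvae (2nd instar Plutella, 3rd instar Phaedon), with four replicates per treatment. Mean percentage larval mortality was scored 4–5 days later at 25 °C.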

[4] = system: Plutella xylostella (Diamond-back Moth); test: whole plant or invertebrate; format: in vivo; details: foliar
In short: as §3

[5] = system: Megoura viciae (Vetch Aphid); test: Test 3 b): spray of infested tic bean plants, Megoura viciae; format: in vivo
Experimental: as §1
b) Megoura viciae (Vetch Aphid)
as §2, with “controls.” for “controls. Each treatment was replicated 4 times.”

[6] = Dose 5 mg/kg at each repetition
[7] = Dose 2.5 mg/kg at each repetition
[8] = Dose 3 mg/kg at each repetition
[9] = Dose 4 mg/kg at each repetition

Structure (SMILES): CCCSc1c(C#N)nn(-c2c(Cl)cc(C(F)(F)F)cc2Cl)c1N [Compound 71, 5-Amino-3-cyano-1-(2,6-dichloro-4-trifluoromethylphenyl)-4-propylthiopyrazole]
score against all stages of Megoura viciae [1]: 7/12

Structure (SMILES): CCC(C)Sc1c(C#N)nn(-c2c(Cl)cc(C(F)(F)F)cc2Cl)c1N (centres unmarked) [Compound 74, 5-Amino-3-cyano-1-(2,6-dichloro-4-trifluoromethylphenyl)-4-(1-methylpropylthio)pyrazole]
score against all stages of Megoura viciae [1]: 7/12

melting point: 168 to 169 °C
Structure (SMILES): N#Cc1c(C(F)(F)F)nn(-c2c(Cl)cc(S(=O)(=O)C(F)(F)F)cc2Cl)c1[N+](=O)[O-] [Compound 234, 4-Cyano-1-(2,6-dichloro-4-trifluoromethanesulphonylphenyl)-5-nitro-3-trifluoromethylpyrazole]

melting point: 188 to 189 °C
Structure (SMILES): CCC(=O)Nc1c(C#N)c(C#N)nn1-c1c(Cl)cc(C(F)(F)F)cc1Cl

melting point: 270 to 272 °C
Structure (SMILES): CS(=O)(=O)c1cc(Cl)c(-n2nc(C(F)(F)F)c(C#N)c2N)c(Cl)c1 [Compound 232, 5-Amino-4-cyano-1-(2,6-dichloro-4-methanesulphonylphenyl)-3-trifluoromethylpyrazole]

Structure (SMILES): CC(C)(C)C(=O)Nc1c(C#N)c(C#N)nn1-c1c(Cl)cc(C(F)(F)F)cc1Cl [Compound 134, 1-(2,6-Dichloro-4-trifluoromethylphenyl)-3,4-dicyano-5-(2,2-dimethylpropionamido)-pyrazole]
Result: ticks recovered / engorgement [2, 6]: Less than five engorged ticks
Result: ticks recovered / engorgement ([2]; Dose 10 mg/kg at each repetition): No ticks recovered

melting point: 242 to 243 °C
Structure (SMILES): N#Cc1nn(-c2c(F)c(F)c(C(F)(F)F)c(F)c2Cl)c(N)c1C#N [Compound 157, 5-Amino-1-(2-chloro-3,5,6-trifluoro-4-trifluoromethylphenyl)-3,4-dicyanopyrazole]

Structure (SMILES): CC(=O)Nc1c(C#N)c(C(F)(F)F)nn1-c1c(Cl)cc(C(F)(F)F)cc1Cl [Compound 133, 5-Acetamido-4-cyano-1-(2,6-dichloro-4-trifluoromethylphenyl)-3-trifluoromethylpyrazole]
pest or weed control at 10 ppm [3]: 100%
mortality at 100 ppm ([4]; read-out: Plutella % mortality at 100 ppm): 21%
Result: ticks recovered / engorgement [2, 7]: No ticks recovered
Result: ticks recovered / engorgement [2, 6]: No ticks recovered
Result: ticks recovered / engorgement ([2]; Dose 15 mg/kg at each repetition): No ticks recovered

melting point: 245 to 247 °C
Structure (SMILES): N#Cc1nn(-c2c(Cl)c(F)c(C(F)(F)F)c(F)c2Cl)c(N)c1C#N

melting point: 50 to 53 °C
Structure (SMILES): CCOC(C)=Nc1c(C#N)c(C)nn1-c1c(Cl)cc(C(F)(F)F)cc1Cl [Compound 168, 4-Cyano-1-(2,6-dichloro-4-trifluoromethylphenyl)-5-(1-ethoxyethylideneamino)-3-methylpyrazole]

Structure (SMILES): CC(C)Sc1c(C#N)nn(-c2c(Cl)cc(C(F)(F)F)cc2Cl)c1N [Compound 72, 5-Amino-3-cyano-1-(2,6-dichloro-4-trifluoromethylphenyl)-4-isopropylthiopyrazole]
score against all stages of Megoura viciae [1]: 7/12

melting point: 88 to 90 °C
Structure (SMILES): CCOC(=O)N(C)c1c(C#N)c(C(F)(F)F)nn1-c1c(Cl)cc(C(F)(F)F)cc1Cl [Compound 175, 4-Cyano-1-(2,6-dichloro-4-trifluoromethylphenyl)-5-(N-methyl-N-ethoxycarbonylamino)-3-trifluoromethylpyrazole]

Structure (SMILES): CC(=O)Nc1c(C#N)c(C#N)nn1-c1c(Cl)cc(C(F)(F)F)cc1Cl [Compound 120, 5-Acetamido-1-(2,6-dichloro-4-trifluoromethylphenyl)-3,4-dicyanopyrazole]
percentage survival through moulting of engorged tick larvae [2, 7]: only 62.5 percent survived
Result: ticks recovered / number of engorged ticks [2, 8]: Less than five engorged ticks
Result: ticks recovered / engorgement [2, 9]: No ticks recovered
Result: ticks recovered / engorgement [2, 6]: No ticks recovered

melting point: 147 to 148 °C
Structure (SMILES): N#Cc1nn(-c2c(Cl)cc(C(F)(F)F)cc2Cl)c(Br)c1[S+]([O-])C(F)(F)F (centres unmarked)

melting point: 49 to 50 °C
Structure (SMILES): N#CSc1c(C(F)(F)F)nn(-c2c(Cl)cc(C(F)(F)F)cc2Cl)c1N [Compound 230, 5-Amino-1-(2,6-dichloro-4-trifluoromethylphenyl)-4-thiocyanato-3-trifluoromethylpyrazole]

Structure (SMILES): CC(C)[S+]([O-])c1c(C#N)nn(-c2c(Cl)cc(C(F)(F)F)cc2Cl)c1N (centres unmarked) [Compound 58, 5-Amino-3-cyano-1-(2,6-dichloro-4-trifluoromethylphenyl)-4-isopropylsulphinylpyrazole]
score against all stages of Megoura viciae [1]: 7/12

melting point: 262 to 263 °C
Structure (SMILES): N#Cc1nn(-c2c(F)c(F)c(C(F)(F)F)c(F)c2F)c(N)c1C#N [Compound 126, 5-Amino-3,4-dicyano-1-(2,3,5,6-tetrafluoro-4-trifluoromethylphenyl)pyrazole]

Structure (SMILES): N#Cc1c(C(F)(F)F)nn(-c2c(Cl)cc(C(F)(F)F)cc2Cl)c1N [Compound 113, 5-Amino-4-cyano-1-(2,6-dichloro-4-trifluoromethylphenyl)-3-trifluoromethylpyrazole]
mortality at 50 ppm ([5]; Megoura viciae, read-out: mortality of Megoura viciae): 100%
score from 4 replicates, Megoura viciae ([5]; Test 3 method (b), application of 50 ppm, score 0-3 per replicate, maximum 12): 12
pest or weed control at 10 ppm [3]: 100%
mortality at 500 ppm ([4]; read-out: mortality of larvae of Plutella xylostella): 100%
percentage survival through moulting of engorged tick larvae ([2]; Dose 1.0 mg/kg at each repetition): only 47.9 percent survived
percentage survival through moulting of engorged tick larvae [2, 7]: only 30.0 percent survived
Result: ticks recovered / number of engorged ticks [2, 8]: reduced
percentage survival through moulting of engorged tick larvae [2, 8]: 8.3%
Result: ticks recovered / engorgement [2, 9]: No ticks recovered
Result: ticks recovered / engorgement [2, 6]: No ticks recovered

melting point: 100 to 102 °C
Structure (SMILES): CCCSc1c(C)nn(-c2c(Cl)cc(C(F)(F)F)cc2Cl)c1N [Compound 227, 5-Amino-1-(2,6-dichloro-4-trifluoromethylphenyl)-4-n-propylthio-3-methylpyrazole]

melting point: 120 to 122 °C
Structure (SMILES): N#Cc1c(C(F)(F)F)nn(-c2c(Cl)cc(C(F)(F)F)cc2Cl)c1SC(F)(F)F [Compound 208, 4-Cyano-1-(2,6-dichloro-4-trifluoromethylphenyl)-3-trifluoromethyl-5-trifluoromethylthiopyrazole]

melting point: 139 to 141 °C
Structure (SMILES): N#Cc1c(CF)nn(-c2c(Cl)cc(C(F)(F)F)cc2Cl)c1N [Compound 142, 5-Amino-4-cyano-1-(2,6-dichloro-4-trifluoromethylphenyl)-3-fluoromethylpyrazole]

melting point: 97 to 100 °C
Structure (SMILES): Cc1c(C(F)(F)F)nn(-c2c(Cl)cc(C(F)(F)F)cc2Cl)c1N [Compound 236, 5-Amino-1-(2,6-dichloro-4-trifluoromethylphenyl)-4-methyl-3-trifluoromethylpyrazole]

melting point: 231 to 232 °C
Structure (SMILES): N#Cc1nn(-c2c(Cl)cc(OC(F)(F)F)cc2Cl)c(N)c1C#N [Compound 159, 5-Amino-1-(2,6-dichloro-4-trifluoromethoxyphenyl)-3,4-dicyanopyrazole]

melting point: 245 to 246 °C
Structure (SMILES): CCNc1c(C#N)c(C#N)nn1-c1c(Cl)cc(C(F)(F)F)cc1Cl

melting point: 177 to 179 °C
Structure (SMILES): N#Cc1c(C(F)(F)F)nn(-c2c(Cl)cc(C(F)(F)F)cc2Cl)c1C(=O)O [Compound 209, 5-Carboxy-4-cyano-1-(2,6-dichloro-4-trifluoromethylphenyl)-3-trifluoromethylpyrazole]

melting point: 134 °C
Structure (SMILES): CC(=O)c1cn(-c2c(Cl)cc(C(F)(F)F)cc2Cl)nc1C(F)(F)F [Compound 215, 4-Acetyl-1-(2,6-dichloro-4-trifluoromethylphenyl)-3-trifluoromethylpyrazole]

melting point: 154 to 161 °C
Structure (SMILES): CN(C)c1c([S+]([O-])C(F)(F)F)c(C#N)nn1-c1c(Cl)cc(C(F)(F)F)cc1Cl (centres unmarked)

melting point: 289 to 290 °C
Structure (SMILES): N#Cc1nn(-c2c(Cl)cc([N+](=O)[O-])cc2Cl)c(N)c1C#N [Compound 172, 5-Amino-1-(2,6-dichloro-4-nitrophenyl)-3,4-dicyanopyrazole]

Structure (SMILES): CC(C)CSc1c(C#N)nn(-c2c(Cl)cc(C(F)(F)F)cc2Cl)c1N [Compound 73, 5-Amino-3-cyano-1-(2,6-dichloro-4-trifluoromethylphenyl)-4-(2-methylpropylthio)pyrazole]
score against all stages of Megoura viciae [1]: 7/12

melting point: 157 to 158 °C
Structure (SMILES): CC[S+]([O-])c1c(C)nn(-c2c(Cl)cc(C(F)(F)F)cc2Cl)c1N (centres unmarked) [Compound 218, 5-Amino-1-(2,6-dichloro-4-trifluoromethylphenyl)-4-ethylsulphinyl-3-methylpyrazole]
